The supplement of paper PMC11061612

Tests used:
[1] = test system: OVTOKO (Ovarian Carcinoma); experiment: Bliss excess, mean over the matrix (fraction); higher = more synergy
How it was run: (§1)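 Bliss excess equals the observed combination effect minus the expected value EA + EB − EA·EB, where EA and EB are the effects of each agent alone. Combination Emax is the second-highest inhibition within the matrix. Inhibition was scaled from CellTiter-Glo 2.0 luminescence, with 0 set by vehicle wells and 1 by blank wells, after 72 hours of two-drug dosing of cells plated in 1536-well plates.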

[2] = test system: RPMI-8866 (Chronic Myelogenous Leukemia); experiment: as above
How it was run: as §1

[3] = test system: KYSE-70 (Esophageal Squamous Cell Carcinoma); experiment: as above
How it was run: as §1

[4] = test system: HTC-C3 (Thyroid Gland Carcinoma); experiment: as above
How it was run: as §1

[5] = test system: SJRH30 (Rhabdomyosarcoma); experiment: as above
How it was run: as §1

KYM-1 (Rhabdomyosarcoma) = experiment: as above
How it was run: as §1

ES-2 (Ovarian Carcinoma) = experiment: as above
How it was run: as §1

[6] = test system: NCI-H1563 (Lung Adenocarcinoma); experiment: as above
How it was run: as §1

[7] = test system: RL95-2 (Endometrial Carcinoma); experiment: as above
How it was run: as §1

[8] = test system: OCI-AML5 (Acute Myeloid Leukemia); experiment: as above
How it was run: as §1

786-0 (Kidney Carcinoma) = experiment: as above
How it was run: as §1

[9] = test system: FLO-1 (Esophageal Adenocarcinoma); experiment: as above
How it was run: as §1

[10] = test system: NKM-1 (Acute Myeloid Leukemia); experiment: as above
How it was run: as §1

[11] = test system: NCI-H810 (Non-Small Cell Lung Carcinoma); experiment: as above
How it was run: as §1

[12] = test system: COLO-684 (Endometrial Carcinoma); experiment: as above
How it was run: as §1

[13] = test system: AsPC-1 (Pancreatic Carcinoma); experiment: as above
How it was run: as §1

CHL-1 (Melanoma) = experiment: as above
How it was run: as §1

[14] = test system: JHH-1 (Hepatocellular Carcinoma); experiment: as above
How it was run: as §1

[15] = test system: CML-T1 (Chronic Myelogenous Leukemia); experiment: combination Emax (second highest fraction inhibited in the dose matrix, 72 h); higher = more inhibition; extreme values may be limits of the assay
How it was run: as §1

[16] = test system: COLO-684 (Endometrial Carcinoma); experiment: as above
How it was run: as §1

Row | Compound | Bliss excess [1] | Bliss excess [2] | Bliss excess [3] | Bliss excess [4] | Bliss excess [5] | Bliss excess (KYM-1 (Rhabdomyosarcoma)) | Bliss excess (ES-2 (Ovarian Carcinoma)) | Bliss excess [6] | Bliss excess [7] | Bliss excess [8] | Bliss excess (786-0 (Kidney Carcinoma)) | Bliss excess [9] | Bliss excess [10] | Bliss excess [11] | Bliss excess [12] | Bliss excess [13] | Bliss excess (CHL-1 (Melanoma)) | Bliss excess [14] | combination Emax [15] | combination Emax [16]
1 | CC(=O)c1c(C)c2cnc(Nc3ccc(N4CCNCC4)cn3)nc2n(C2CCCC2)c1=O [Palbociclib] + CC1(C)CCC(CN2CCN(c3ccc(C(=O)NS(=O)(=O)c4ccc(NCC5CCOCC5)c([N+](=O)[O-])c4)c(Oc4cnc5[nH]ccc5c4)c3)CC2)=C(c2ccc(Cl)cc2)C1 [Venetoclax] (first compound max 10 µM, 7x7, partner max 1 µM) | -0.0114 | -0.0632 | -0.0465 | -0.0214 | -0.0363 | -0.0392 | -0.0219 | -0.0079 | 0.0133 | 0.0436 | 0.0042 | -0.019 | 0.0548 | -0.0585 | -0.0614 | -0.0715 | -0.0357 | -0.0601 | 0.932 | 0.193
2 | CC1(C)CCC(CN2CCN(c3ccc(C(=O)NS(=O)(=O)c4ccc(NCC5CCOCC5)c([N+](=O)[O-])c4)c(Oc4cnc5[nH]ccc5c4)c3)CC2)=C(c2ccc(Cl)cc2)C1 [Venetoclax] + COc1cc(Nc2ncc3c(n2)-c2ccc(Cl)cc2C(c2c(F)cccc2OC)=NC3)ccc1C(=O)O [Alisertib] (first compound max 1 µM, 7x7, partner max 10 µM) | -0.0508 | 0.0475 | -0.0084 | -0.0285 | 0.0315 | 0.0069 | -0.0017 | -0.0523 | 0.0892 | 0.17 | -0.0114 | -0.0379 | 0.0087 | 0.0303 | -0.0153 | -0.0701 | 0.238 | 0.0308 | 0.965 | 0.264
3 | Cc1c2c(nn1C)CSCc1cc(n(C)n1)CSc1cc(c3ccccc3c1)OCCCc1c(C(=O)O)n(C)c3c-2c(Cl)ccc13 [AZD5991] + C[C@@H]1COCCN1C2=NC(=NC(=C2)C3(CC3)[S@](=N)(=O)C)C4=C5C=CNC5=NC=C4 [AZD6738] (first compound max 1 µM, 7x7, partner max 10 µM) | 0.0404 | 0.0013 | 0.0485 | -0.0103 | 0.0225 | 0.1 | 0.0424 | 0.0224 | -0.0023 | -0.0011 | -0.0098 | -0.0301 | 0.024 | 0.0552 | -0.0426 | 0.0026 | 0.0789 | 0.106 | 0.96 | 0.741
4 | CC1(C)CCC(CN2CCN(c3ccc(C(=O)NS(=O)(=O)c4ccc(NCC5CCOCC5)c([N+](=O)[O-])c4)c(Oc4cnc5[nH]ccc5c4)c3)CC2)=C(c2ccc(Cl)cc2)C1 [Venetoclax] + C=CCn1c(=O)c2cnc(Nc3ccc(N4CCN(C)CC4)cc3)nc2n1-c1cccc(C(C)(C)O)n1 [AZD1775] (first compound max 1 µM, partner max 1 µM) | -0.0903 | -0.0547 | -0.0169 | -0.065 | -0.045 | 0.0082 | -0.0297 | 0.0451 | 0.0277 | -0.0397 | -0.0686 | 0.0161 | -0.0087 | -0.0873 | -0.0644 | -0.0879 | 0.0577 | 0.0213 | 1 | 0.732
5 | COc1cc2c(cc1OCCCCCOc1cc3c(cc1OC)C(=O)N1C=C(C)C[C@H]1C=N3)N=C[C@@H]1CC(C)=CN1C2=O [SG3199] + O=C(c1cc(Cc2n[nH]c(=O)c3ccccc23)ccc1F)N1CCN(C(=O)C2CC2)CC1 [Olaparib] (first compound max 0.001 µM, 7x7, partner max 10 µM) | -0.0476 | -0.0032 | -0.0227 | -0.013 | 0.0009 | -0.0201 | -0.045 | -0.0428 | -0.0383 | 0.0232 | -0.0223 | -0.0486 | -0.0362 | -0.0368 | -0.0286 | -0.0535 | -0.0227 | -0.0059 | 0.738 | 0.0915
6 | CC1(C)CCC(CN2CCN(c3ccc(C(=O)NS(=O)(=O)c4ccc(NCC5CCOCC5)c([N+](=O)[O-])c4)c(Oc4cnc5[nH]ccc5c4)c3)CC2)=C(c2ccc(Cl)cc2)C1 [Venetoclax] + Cc1cc2ncnn2cc1Nc1ncc2c(n1)n(C1CCOCC1)c(=O)n2C [AZD7648] (first compound max 1 µM, 7x7, partner max 10 µM) | -0.0518 | -0.026 | -0.0003 | -0.0197 | 0.0112 | -0.0074 | -0.0087 | -0.0123 | -0.0025 | -0.0238 | -0.0487 | -0.114 | 0.0323 | -0.028 | -0.0205 | -0.0803 | -0.0264 | -0.0374 | 0.93 | 0.349
7 | CN(CCO)CC[C@H](CSc1ccccc1)Nc1ccc(S(=O)(=O)NC(=O)c2ccc(N3CCC([C@@H](O)c4ccccc4-c4ccc(Cl)cc4)CC3)cc2)cc1S(=O)(=O)C(F)(F)F [AZD4320] + C[C@@H]1COCCN1C2=NC(=NC(=C2)C3(CC3)[S@](=N)(=O)C)C4=C5C=CNC5=NC=C4 [AZD6738] (first compound max 1 µM, 7x7, partner max 10 µM) | -0.112 | 0.0527 | -0.0096 | -0.0305 | 0.0213 | 0.0286 | -0.0061 | 0.0051 | -0.0163 | 0.0284 | -0.0263 | -0.0574 | 0.0067 | -0.0762 | -0.0589 | -0.109 | 0.0607 | -0.0234 | 1 | 0.728
8 | Cc1c2c(nn1C)CSCc1cc(n(C)n1)CSc1cc(c3ccccc3c1)OCCCc1c(C(=O)O)n(C)c3c-2c(Cl)ccc13 [AZD5991] + C=CCn1c(=O)c2cnc(Nc3ccc(N4CCN(C)CC4)cc3)nc2n1-c1cccc(C(C)(C)O)n1 [AZD1775] (first compound max 1 µM, partner max 1 µM) | 0.0474 | -0.0441 | 0.015 | 0.0091 | -0.0362 | 0.0583 | -0.0399 | 0.0004 | 0.0116 | -0.0036 | -0.0387 | -0.0047 | -0.0519 | 0.0025 | -0.0587 | 0.0293 | -0.0218 | 0.03 | 0.938 | 0.739
9 | NC1(C(=O)N[C@@H](CCO)c2ccc(Cl)cc2)CCN(c2ncnc3[nH]ccc23)CC1 [Capivasertib] + CCN(CCO)CCCOc1ccc2c(Nc3cc(CC(=O)Nc4cccc(F)c4)[nH]n3)ncnc2c1 [AZD2811] (first compound max 10 µM, 7x7, partner max 1 µM) | -0.0109 | 0.0469 | -0.0902 | -0.015 | 0.0224 | -0.0457 | -0.0018 | 0.0242 | -0.0051 | -0.0465 | -0.0352 | -0.0049 | -0.0299 | -0.0195 | 0.0272 | -0.0655 | -0.0092 | -0.0517 | 0.9 | 0.659
10 | CC(=O)c1c(C)c2cnc(Nc3ccc(N4CCNCC4)cn3)nc2n(C2CCCC2)c1=O [Palbociclib] + Cn1cnc2c(F)c(Nc3ccc(Br)cc3Cl)c(C(=O)NOCCO)cc21 [Selumetinib] (first compound max 10 µM, 7x7, partner max 10 µM) | -0.0503 | 0.0259 | -0.0096 | 0.0564 | -0.0131 | -0.0022 | -0.0041 | 0.0092 | -0.0144 | 0.0868 | 0.0079 | 0.0209 | -0.0194 | -0.0697 | -0.04 | -0.0664 | -0.0342 | -0.0693 | 0.926 | 0.153
11 | CN(CCO)CC[C@H](CSc1ccccc1)Nc1ccc(S(=O)(=O)NC(=O)c2ccc(N3CCC([C@@H](O)c4ccccc4-c4ccc(Cl)cc4)CC3)cc2)cc1S(=O)(=O)C(F)(F)F [AZD4320] + Cn1cnc2c(F)c(Nc3ccc(Br)cc3Cl)c(C(=O)NOCCO)cc21 [Selumetinib] (first compound max 1 µM, 7x7, partner max 3 µM) | 0.0554 | 0.0349 | 0.0554 | 0.069 | 0.0587 | 0.0283 | 0.0164 | 0.045 | 0.137 | 0.0137 | -0.0187 | 0.0109 | -0.0208 | -0.0577 | 0.0023 | 0.0314 | -0.0218 | 0.0527 | 0.996 | 0.355
12 | CCc1c2c(nc3ccc(O)cc13)-c1cc3c(c(=O)n1C2)COC(=O)[C@]3(O)CC [SN-38] + CN(C)CCCOc1ccc(-c2ccc3ncc4c(c3c2)n(C2CCOCC2)c(=O)n4C)cn1 [AZD0156] (first compound max 0.3 µM, 7x7, partner max 1 µM) | -0.0523 | 0.0969 | 0.0487 | 0.105 | 0.0722 | 0.0465 | 0.0144 | -0.0605 | 0.0502 | -0.0231 | 0.0032 | 0.0218 | 0.033 | -0.0022 | -0.0265 | -0.029 | 0.0336 | -0.018 | 1 | 0.473
13 | COc1cccc(OCCCN)c1-c1cc(Nc2cnc(C#N)cn2)n[nH]1 [Prexasertib] + CN(C)CCCOc1ccc(-c2ccc3ncc4c(c3c2)n(C2CCOCC2)c(=O)n4C)cn1 [AZD0156] (first compound max 1 µM, 7x7, partner max 1 µM) | 0.0594 | -0.009 | -0.0233 | -0.029 | -0.0242 | 0.0147 | 0.0072 | -0.0416 | -0.0364 | 0.0781 | -0.0576 | -0.056 | -0.0165 | -0.0327 | -0.0172 | 0.0303 | 0.0059 | 0.0785 | 0.987 | 0.854
14 | NC1(C(=O)N[C@@H](CCO)c2ccc(Cl)cc2)CCN(c2ncnc3[nH]ccc23)CC1 [Capivasertib] + CC(=O)c1c(C)c2cnc(Nc3ccc(N4CCNCC4)cn3)nc2n(C2CCCC2)c1=O [Palbociclib] (first compound max 10 µM, 7x7, partner max 10 µM) | -0.0688 | 0.0215 | 0.0188 | 0.0437 | -0.0084 | -0.0312 | 0.0008 | -0.0456 | 0.0215 | -0.0096 | 0.0245 | -0.0218 | -0.0204 | -0.0346 | -0.0759 | -0.025 | -0.0082 | -0.0687 | 0.939 | 0.632
